Earlier results in patent publication US20260069593A1, “METHODS FOR TREATING CANCER” (AMGEN INC., priority 2022, published 2026).

Tested on: extracellular signal-regulated kinase (ERK)
Settings: preclinical studies

## C=CC(=O)N1CCN(c2nc(=O)n(-c3c(C)ccnc3C(C)C)c3nc(-c4c(O)cccc4F)c(F)cc23)[C@@H](C)C1 (atropisomer, axis not shown; (M)) [sotorasib, 6-fluoro-7-(2-fluoro-6-hydroxyphenyl)-(1M)-1-[4-methyl-2-(propan-2-yl)pyridin-3-yl]-4-[(2S)-2-methyl-4-(prop-2-enoyl)piperazin-1-yl]pyrido[2,3-d]pyrimidin-2(1H)-one]
  phosphorylation of extracellular signal-regulated kinase (ERK): inhibited nearly all detectable phosphorylation of extracellular signal-regulated kinase (ERK)
